Data as given in patent US7700272B2, “Polynucleotides encoding acetylcholine-gated chloride channel subunits of Caenorhabditis elegans” (priority 2004, dated 2010).
Entries after “also recorded” stand apart in the source; their conditions may differ. Where two headings read alike, the source gives them in different places.

How the values were obtained:
[1] = molecular target: ACC-2D6.3 channel (Caenorhabditis elegans, UniProt Q18812); assay: cell-based
From the text: (§1) For capped cRNA synthesis, cDNAs were subcloned into the pT7N vector, which contains a T7 RNA polymerase promoter, the 5′- and 3′-UTR of Xenopus laevis beta-globin, and an encoded poly(A+) tail (Cary R B, Klymkowsky M W, Evans R M, Domingo A, Dent J A, Backhus L E (1994) Vimentin's tail interacts with actin-containing structures in vivo. J Cell Sci 107:1609-1622.). The pT7NcDNA constructs were linearized with Sal I (ACC-2D6.3) or BamHI (ACC-1G6.4) and transcribed using the MEGAscript Kit (Ambion, Austin, Tex., USA). Synthesized cRNAs were recovered by LiCl precipitation and resuspended in nuclease-free H2O at final concentration of 1 microgram/ml.
(§2) Oocytes were harvested from mature female Xenopus leavis according to standard procedures (Goldin, A. L. (1992) Maintenance of Xenopus laevis and oocyte injection. Methods Enzymol. 207: 266-79.). To remove inner ovarian epithelium, thecal cell layer, and follicular cells, the ovarian pieces were placed in OR-2 solution: 82.5 mM NaCl, 2 mM KCl, 1 mM MgCl2, and 5 mM Hepes (pH 7.5) containing 1 mg/ml type I collagenase (Sigma, St Louis Mo., USA) either for 3 hours at 20° C. with gentle agitation or for 1 hour followed by manual defolliculization. The stage VI defolliculated oocytes were placed in ND96 solution (96 mM NaCl, 2 mM KCl, 1.8 mM CaCl2, 1 mM MgCl2, and 5 mM Hepes, pH7.5). Oocytes were injected with 40 nl of cRNA using the Nanoject system (Drummond Scientific, Broomall, Pa., USA). Injected oocytes were incubated at 20° C. in ND96 supplemented with […] gentamycin and […] pyruvate. Oocytes were allowed to express cRNA for two days before measurements were taken.
(§3) Two-electrode voltage-clamp recordings were performed using the AxoClamp 2B amplifier (Axon Instruments, Foster City, Calif., USA). Microelectrodes were pulled from borosilicate glass capillaries (Word Precision Instruments, Inc., Sarasota, Fla., USA) on the P-97 micropipette puller Sutter Instruments, Novato, Calif., USA). […] Each oocyte was placed in RC-12 recording chamber (Warner Instrument Inc., Hamden, Conn., USA) or a Maltese cross chamber (ALA Scientific Instruments, Westbury, N.Y., USA) and clamped at −80 mV. Data were acquired at 1 kHz using Clampex software (Axon Instruments, Foster City, Calif., USA).
(§4) Dose-response curves for agonists were generated by their applying the agonist in increasing concentrations followed by 3-9 min washes at each concentration. To determine EC50 and Hill coefficient agonist dose response curves were fit using the following equation: f(I)=(Imax[I]^n/(EC50^n+[I]^n))+Imin, where I is the normalized response to agonist at certain concentration, Imax is the maximal response elicited by a saturating concentration of agonist, EC50 is the concentration of agonist inducing half-maximal response, n is the Hill coefficient, and Imin is the normalized response at lowest agonist concentration.
(§5) The mean and standard error of the mean of peak current responses of at least three oocytes per experiment are represented.
(§6) All drugs were obtained from Sigma-Aldrich (St. Louis, Mo. USA) except imidicloprid (IMI) which was provided by Crompton Co. (Guelph, ON, Canada). Drugs were dissolved in ND96 except IMI, which was made as a stock solution in DMSO and diluted to working concentrations in ND96. If required, drug solutions were adjusted to pH 7.5 with either NaOH or HCl. Fresh solutions were prepared before measurements and stored at 4° C. for 1-5 days.

[2] = system: ACC-3D10.5; assay: Two-electrode voltage-clamp of Xenopus oocytes injected with ACC-3D10.5 cRNA; type: cell-based, C. elegans; details: 1 mM
Method: (§8) Oocytes were harvested from mature female Xenopus leavis according to standard procedures (Goldin, A. L. (1992) Maintenance of Xenopus laevis and oocyte injection. Methods Enzymol. 207: 266-79.). To remove inner ovarian epithelium, thecal cell layer, and follicular cells, the ovarian pieces were placed in OR-2 solution: 82.5 mM NaCl, 2 mM KCl, 1 mM MgCl2, and 5 mM Hepes (pH 7.5) containing 1 mg/ml type I collagenase (Sigma, St Louis Mo., USA) either for 3 hours at 20° C. with gentle agitation or for 1 hour followed by manual defolliculization. The stage VI defolliculated oocytes were placed in ND96 solution (96 mM NaCl, 2 mM KCl, 1.8 mM CaCl2, 1 mM MgCl2, and 5 mM Hepes, pH7.5). Oocytes were injected with 40 nl of cRNA using the Nanoject system (Drummond Scientific, Broomall, Pa., USA). Injected oocytes were incubated at 20° C. in ND96 supplemented with 100 mg/ml gentamycin and 550 mg/ml pyruvate. Oocytes were allowed to express cRNA for two days before measurements were taken.

[3] = system: ACC-4E9.9; assay: Two-electrode voltage-clamp of Xenopus oocytes injected with ACC-4E9.9 cRNA; type: cell-based, C. elegans; details: 1 mM
Method: as §8

[4] = system: ACC-2D6.3+ACC-3D10.5; type: cell-based, C. elegans; details: 1 mM
Method: as §8

[5] = system: ACC-2D6.3+ACC-4E9.9; type: cell-based, C. elegans; details: 1 mM
Method: as §8

[6] = molecular target: ACC-2 Y100L (Caenorhabditis elegans, UniProt Q18812, Y100L); assay: Voltage-clamp of Xenopus oocytes expressing ACC-2 mutant Y100L; type: cell-based, C. elegans
ACC-2 Y100L, sequence (Q18812 whole entry Y100L, looked up): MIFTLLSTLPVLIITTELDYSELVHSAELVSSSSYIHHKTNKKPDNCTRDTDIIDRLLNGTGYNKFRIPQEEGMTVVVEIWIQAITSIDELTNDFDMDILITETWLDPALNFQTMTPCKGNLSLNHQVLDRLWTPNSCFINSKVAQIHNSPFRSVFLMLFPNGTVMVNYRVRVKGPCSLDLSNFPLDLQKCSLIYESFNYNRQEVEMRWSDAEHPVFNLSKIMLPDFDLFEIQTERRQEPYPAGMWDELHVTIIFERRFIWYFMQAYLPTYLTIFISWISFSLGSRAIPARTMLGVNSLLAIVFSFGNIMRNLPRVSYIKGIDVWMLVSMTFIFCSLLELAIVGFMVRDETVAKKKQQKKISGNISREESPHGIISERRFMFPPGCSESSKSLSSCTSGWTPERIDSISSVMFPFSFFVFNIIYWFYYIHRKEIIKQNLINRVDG
Method: as §3, §4
(§7) These mutations are substitutions of Leu for Tyr at amino acid 100 (Y100L) and Tyr for Phe at amino acid 160 (F160Y).

[7] = molecular target: ACC-2 F160Y (Caenorhabditis elegans, UniProt Q18812, F160Y); assay: Voltage-clamp of Xenopus oocytes expressing ACC-2 mutant F160Y; type: cell-based, C. elegans
ACC-2 F160Y, sequence (Q18812 whole entry F160Y, looked up): as the sequence (Q18812 whole entry Y100L, looked up) above, with L100Y, F160Y counted along it
Method: as §3, §4, §7

[8] = molecular target: T1, ACC-1G6.4 channel (Caenorhabditis elegans, UniProt Q21005); assay: Two-electrode voltage-clamp of Xenopus oocytes expressing ACC-1G6.4 homomeric channel; type: cell-based, C. elegans
T1 construct: Agonist: percentage of maximal acetylcholine-elicited response; other: compound at 0.1 mM; Agonist: percentage of maximal acetylcholine-elicited response; other: compound at 0.2 mM; other: compound at 0.4 mM; other: compound at 0.8 mM; Agonist: percentage of maxim
T1 sequence (Q21005 whole entry, looked up): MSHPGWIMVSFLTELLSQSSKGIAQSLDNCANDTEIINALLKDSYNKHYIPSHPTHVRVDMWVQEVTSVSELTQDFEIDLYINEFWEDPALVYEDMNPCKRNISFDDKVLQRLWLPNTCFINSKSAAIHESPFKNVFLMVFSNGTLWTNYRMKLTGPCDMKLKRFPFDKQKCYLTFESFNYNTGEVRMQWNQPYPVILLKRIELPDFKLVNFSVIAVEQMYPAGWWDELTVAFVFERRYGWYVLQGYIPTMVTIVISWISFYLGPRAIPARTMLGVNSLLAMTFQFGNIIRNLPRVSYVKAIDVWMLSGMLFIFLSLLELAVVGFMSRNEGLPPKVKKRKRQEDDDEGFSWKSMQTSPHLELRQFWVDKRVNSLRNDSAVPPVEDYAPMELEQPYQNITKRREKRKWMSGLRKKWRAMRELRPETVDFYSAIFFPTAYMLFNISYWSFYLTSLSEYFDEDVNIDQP
From the text: as §1, §2, §3, §4, §5, §6

[9] = system: T2, ACC-1G6.4 channel; assay: as above; type: cell-based, C. elegans; details: one range given for both channels
T2 construct: rows headed: evoked current as % of the maximal ACh-elicited current; other: text; maximal magnitude of ACh-elicited inward current; other: −80 mV
From the text: as §1, §2, §3, §4, §5, §6

[10] = EC50 (agonist), oocytes clamped at −80 mV, wild type
[11] = concentration tested in brackets where printed

ACC-2D6.3 channel, sequence (Q18812 whole entry, looked up): as the sequence (Q18812 whole entry Y100L, looked up) above, with L100Y counted along it

Structure (SMILES) | estimated Hill coefficient (agonist) [1] | EC50 [1, 10] | EC50 ([1]; EC50, Table 4) | current response [2] | response (in words) [3] | current response [4] | response (in words) [5] | EC50 [6] | EC50 [7] | estimated Hill coefficient (agonist) ([8]; agonist dose-response) | agonist action (in words) [8, 11] | antagonist action (in words) [8, 11] | EC50 ([8]; oocytes clamped at −80 mV, read-out: EC50 (agonist)) | evoked current as % of the maximal ACh-elicited current [9] | evoked current as % of the maximal ACh-elicited current [1] | estimated Hill coefficient (agonist) ([1]; agonist dose-response) | antagonist action (in words) [1, 11]
CC(=O)OCC[N+](C)(C)C [ACh, acetylcholine] | 2.64±0.08 | 9.54 ± 0.11 µM | 9.5 µM | 10-30 nA | no response | 50-60 nA | did not respond | 351 ± 33 µM | 44 ± 1.8 µM |  |  |  |  |  |  |  | 
COC(=O)C1=CCCN(C)C1 [arecoline] |  | 754 ± 22 µM |  |  |  |  |  |  |  | 1.59±0.09 | agonists; also recorded: strong agonist; also recorded: strongly | did not inhibit the ACh response | 4.7 ± 0.11 µM | 82-89% | 82-89% | 2.66±0.23 | did not inhibit the ACh response
